Assay results from ChEMBL document CHEMBL1201862, “PubChem BioAssay data set” (2004).
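Five compound concentrations were applied to cells in 96-well plates for 48 hours; endpoints were derived by simple linear interpolation of the resulting dose-response curve. The concentration for 50% growth inhibition is given as GI50.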 The source made the active and inactive calls. Rule as the data show it: active = GI50 up to about 1.1 µM and inactive = higher.

How the values were obtained:
Assay in all cases: inhibition of tumour cell growth, NCI panel, 48 h
786-0 = system: 786-0
A498 = system: A498
A549 = system: A549
ACHN = system: ACHN
BT-549 = system: BT-549
CAKI-1 = system: CAKI-1
CCRF-CEM = system: CCRF-CEM
COLO 205 = system: COLO 205
DLD-1 = system: DLD-1
DMS-114 = system: DMS-114
DU-145 = system: DU-145
EKVX = system: EKVX
HCT-116 = system: HCT-116
HCT-15 = system: HCT-15
HL-60 = system: HL-60
HOP-62 = system: HOP-62
HOP-92 = system: HOP-92
HT-29 = system: HT-29
IGROV-1 = system: IGROV-1
K562 = system: K562
KM-20L2 = system: KM-20L2
LOX IMVI = system: LOX IMVI
LXFL 529 = system: LXFL 529
M14 = system: M14
M19-MEL = system: M19-MEL
MCF7 = system: MCF7
MDA-MB-231 = system: MDA-MB-231
MDA-MB-435 = system: MDA-MB-435
MDA-N = system: MDA-N
MOLT-4 = system: MOLT-4
NCI-H226 = system: NCI-H226
NCI-H23 = system: NCI-H23
NCI-H460 = system: NCI-H460
NCI-H522 = system: NCI-H522
NCI/ADR-RES = system: NCI/ADR-RES
OVCAR-3 = system: OVCAR-3
OVCAR-4 = system: OVCAR-4
OVCAR-5 = system: OVCAR-5
OVCAR-8 = system: OVCAR-8
PC-3 = system: PC-3
RPMI-8226 = system: RPMI-8226
RXF 393 = system: RXF 393
SF-268 = system: SF-268
SF-295 = system: SF-295
SF-539 = system: SF-539
SK-MEL-28 = system: SK-MEL-28
SK-MEL-2 = system: SK-MEL-2
SK-MEL-5 = system: SK-MEL-5
SK-OV-3 = system: SK-OV-3
SN12C = system: SN12C
SNB-19 = system: SNB-19
SNB-78 = system: SNB-78
SR = system: SR
SW-620 = system: SW-620
T47D = system: T47D
TK-10 = system: TK-10
U-251 = system: U-251
UACC-257 = system: UACC-257
UACC-62 = system: UACC-62
UO-31 = system: UO-31
XF498 = system: XF498
DMS-273 = system: DMS-273
HCC 2998 = system: HCC 2998
HOP-18 = system: HOP-18
KM12 = system: KM12
Malme-3M = system: Malme-3M
SNB-75 = system: SNB-75

With `COc1ccc(/C=C2/C(=O)N(C(=O)c3ccccc3O)N=C2C)cc1` the GI50 (786-0) was 0.598 µM (active), the GI50 (A498) was 0.0202 µM (active) and the GI50 (A549) was 0.175 µM (active). For the same molecule, the GI50 (ACHN) was 0.0418 µM (active), the GI50 (BT-549) was 0.105 µM (active) and the GI50 (CAKI-1) was 0.0962 µM (active). For the same molecule, the GI50 (CCRF-CEM) was 0.124 µM (active), the GI50 (COLO 205) was 18.2 µM (inactive) and the GI50 (DLD-1) was 0.0828 µM (active). For the same molecule, the GI50 (DMS-114) was 0.117 µM (active), the GI50 (DU-145) was 0.192 µM (active) and the GI50 (EKVX) was 0.608 µM (active). For the same molecule, the GI50 (HCT-116) was 0.091 µM (active), the GI50 (HCT-15) was 0.263 µM and the GI50 (HL-60) was 0.292 µM (active). For the same molecule, the GI50 (HOP-62) was 0.356 µM (active), the GI50 (HOP-92) was 0.0441 µM (active) and the GI50 (HT-29) was 4.57 µM (inactive). The GI50 (IGROV-1) was 0.0234 µM (active), the GI50 (K562) was 0.0492 µM (active) and the GI50 (KM-20L2) was 16.5 µM (inactive). For the same molecule, the GI50 (LOX IMVI) was 0.28 µM (active), the GI50 (LXFL 529) was 0.205 µM (active) and the GI50 (M14) was 16.4 µM (inactive). The GI50 (M19-MEL) was 0.542 µM (active), the GI50 (MCF7) was 0.617 µM (active) and the GI50 (MDA-MB-231) was 0.126 µM (active). The GI50 (MDA-MB-435) was 0.05 µM (active), the GI50 (MDA-N) was 0.125 µM (active) and the GI50 (MOLT-4) was 0.244 µM (active). The GI50 (NCI-H226) was 1.35 µM (inactive), the GI50 (NCI-H23) was 0.114 µM (active) and the GI50 (NCI-H460) was 0.262 µM (active). For the same molecule, the GI50 (NCI-H522) was 0.356 µM (active), the GI50 (NCI/ADR-RES) was 0.984 µM (active) and the GI50 (OVCAR-3) was 0.338 µM (active). For the same molecule, the GI50 (OVCAR-4) was 0.655 µM (active), the GI50 (OVCAR-5) was 11.2 µM (inactive) and the GI50 (OVCAR-8) was 0.238 µM (active). The GI50 (PC-3) was 0.535 µM (active), the GI50 (RPMI-8226) was 0.895 µM (active) and the GI50 (RXF 393) was < 0.0446 µM (active). The GI50 (SF-268) was 0.202 µM (active), the GI50 (SF-295) was 0.0946 µM (active) and the GI50 (SF-539) was 0.109 µM (active). For the same molecule, the GI50 (SK-MEL-28) was 9.4 µM (inactive), the GI50 (SK-MEL-2) was 0.327 µM (active) and the GI50 (SK-MEL-5) was 0.218 µM (active). For the same molecule, the GI50 (SK-OV-3) was 0.0789 µM (active), the GI50 (SN12C) was 0.65 µM (active) and the GI50 (SNB-19) was 0.0484 µM (active). For the same molecule, the GI50 (SNB-78) was 0.033 µM (active), the GI50 (SR) was 0.232 µM (active) and the GI50 (SW-620) was 1.44 µM (inactive). The GI50 (T47D) was 4.32 µM (inactive), the GI50 (TK-10) was 6.04 µM (inactive) and the GI50 (U-251) was 0.0692 µM (active). For the same molecule, the GI50 (UACC-257) was 0.442 µM (active), the GI50 (UACC-62) was 0.0968 µM (active) and the GI50 (UO-31) was 0.0445 µM (active). For the same molecule, the GI50 (XF498) was 0.3 µM (active).

With `O=C(O)CCNCCCCNCCC(=O)O` the GI50 (786-0) was > 100 µM (inactive), the GI50 (A498) was > 100 µM (inactive) and the GI50 (A549) was > 100 µM (inactive). For the same molecule, the GI50 (ACHN) was > 100 µM (inactive), the GI50 (CAKI-1) was > 100 µM (inactive) and the GI50 (CCRF-CEM) was > 100 µM (inactive). The GI50 (COLO 205) was > 100 µM (inactive), the GI50 (DLD-1) was > 100 µM (inactive) and the GI50 (DMS-273) was > 100 µM (inactive). The GI50 (EKVX) was > 100 µM (inactive), the GI50 (HCC 2998) was > 100 µM (inactive) and the GI50 (HCT-116) was > 100 µM (inactive). The GI50 (HCT-15) was over 100 µM, the GI50 (HL-60) was > 100 µM (inactive) and the GI50 (HOP-18) was > 100 µM (inactive). The GI50 (HOP-62) was > 100 µM (inactive), the GI50 (HOP-92) was > 100 µM (inactive) and the GI50 (HT-29) was > 100 µM (inactive). For the same molecule, the GI50 (IGROV-1) was > 100 µM (inactive), the GI50 (K562) was > 100 µM (inactive) and the GI50 (KM-20L2) was > 100 µM (inactive). For the same molecule, the GI50 (KM12) was > 100 µM (inactive), the GI50 (LOX IMVI) was > 100 µM (inactive) and the GI50 (LXFL 529) was > 100 µM (inactive). For the same molecule, the GI50 (M14) was > 100 µM (inactive), the GI50 (MOLT-4) was > 100 µM (inactive) and the GI50 (Malme-3M) was > 100 µM (inactive). For the same molecule, the GI50 (NCI-H226) was > 100 µM (inactive), the GI50 (NCI-H23) was > 100 µM (inactive) and the GI50 (NCI-H460) was > 100 µM (inactive). The GI50 (NCI-H522) was > 100 µM (inactive), the GI50 (OVCAR-3) was > 100 µM (inactive) and the GI50 (OVCAR-4) was > 100 µM (inactive). For the same molecule, the GI50 (OVCAR-5) was > 100 µM (inactive), the GI50 (OVCAR-8) was > 100 µM (inactive) and the GI50 (RPMI-8226) was > 100 µM (inactive). For the same molecule, the GI50 (RXF 393) was > 100 µM (inactive), the GI50 (SF-268) was > 100 µM (inactive) and the GI50 (SF-295) was > 100 µM (inactive). The GI50 (SF-539) was > 100 µM (inactive), the GI50 (SK-MEL-28) was > 100 µM (inactive) and the GI50 (SK-MEL-2) was > 100 µM (inactive). The GI50 (SK-MEL-5) was > 100 µM (inactive), the GI50 (SK-OV-3) was > 100 µM (inactive) and the GI50 (SN12C) was > 100 µM (inactive). The GI50 (SNB-19) was > 100 µM (inactive), the GI50 (SNB-75) was > 100 µM (inactive) and the GI50 (SW-620) was > 100 µM (inactive). The GI50 (TK-10) was > 100 µM (inactive), the GI50 (U-251) was > 100 µM (inactive) and the GI50 (UACC-62) was > 100 µM (inactive). For the same molecule, the GI50 (XF498) was > 100 µM (inactive).
